The source made the active and inactive calls. The calls are words filed in the database; no cut-off is given here.
How the values were obtained:
Rattus norvegicus = species: Rattus norvegicus; assay: animal or person; details: read-out: Inhibition
physchem = details: octanol/water
Description: Partition coefficient, log P of the compound

Mus musculus [1] = species: Mus musculus; assay: animal or person; details: po, read-out: Inhibition
[2] = octanol/water
Description: Lipophilicity, log K of the compound

Leukotriene B4 receptor = Leukotriene B4 receptor (Homo sapiens, UniProt Q9NPC1+Q15722)
Description: Displacement of [3H]LTB4 from LTB4 receptor in guinea pig spleen membrane

Mus musculus [3] = species: Mus musculus; assay: animal or person; details: po, read-out: Inhibition; remark: listed apart in the source
Mus musculus [4] = assay: Stimulation of hyperaemia in mouse at 200 mg/kg, po; format: functional
Mus musculus [5] = species: Mus musculus; assay: Antiinflammatory activity against dextran sodium sulfate-induced ulcerative colitis in BALB/c mouse assessed as stool consistency; format: functional, organism-based
Mus musculus [6] = species: Mus musculus; assay: Antiinflammatory activity against dextran sodium sulfate-induced ulcerative colitis in BALB/c mouse assessed as large intestinal bleeding; format: functional, organism-based

| SMILES | inhibition in vivo at 100 mg/kg (Rattus norvegicus) | logP (physchem) | inhibition in vivo at 200 mg/kg (Mus musculus [1]) | log K [2] | IC50 (Leukotriene B4 receptor) | inhibition in vivo at 200 mg/kg (Mus musculus [3]) | Activity (Mus musculus [4]) | Activity (Mus musculus [5]) | Activity (Mus musculus [6]) |
| --- | --- | --- | --- | --- | --- | --- | --- | --- | --- |
| COc1cc(CC(=O)O)ccc1OCCCOc1ccc(CC(=O)N(C)CCc2ccc(Br)cc2)cc1 | 3% | 5.62 | 38% | 0.193 | – | – | – | – | – |
| COc1cc(CC(=O)O)ccc1OCCCCOc1ccc(CC(=O)N(C)CCc2ccccc2)cc1 | 0% | 5.22 | 21% | 0.12 | 8600 nM | – | – | – | – |
| CC(c1cc2ccccc2s1)N(O)C(N)=O (stereo not given) [ZILEUTON] | 46% | – | – | – | – | 13% | – | – | – |
| COc1cc(CC(=O)O)ccc1OCCCOc1ccc(CC(=O)N(C)CCc2ccccc2)cc1 | – | 4.73 | 14% | 0.013 | 67000 nM | – | – | – | – |
| CN(CCc1ccccc1)C(=O)Cc1ccc(OCCCCOc2ccc(CC(=O)O)cc2)cc1 | 30% | 5.65 | 45% | 0.287 | 4700 nM | – | – | – | – |
| CN(CCc1ccccc1)C(=O)Cc1ccc(OCCCOc2ccc(CC(=O)O)cc2)cc1 | 39% | 5.16 | 20% | 0.166 | 18000 nM | – | – | – | – |
| Cc1ccc(CCN(C)C(=O)Cc2ccc(OCCCCOc3ccc(CC(=O)O)cc3)cc2)cc1 | – | 6.2 | 20% | 0.471 | 660 nM | – | – | – | – |
| COc1cc(CC(=O)O)ccc1OCCCCOc1ccc(CC(=O)NCCc2ccccc2)cc1 | – | 5.01 | 23% | -0.079 | – | – | 7.7% | – | – |
| O=C(O)Cc1ccc(OCCCCOc2ccc(CC(=O)NCCc3ccccc3)cc2)cc1 | – | 5.44 | 23% | 0.089 | – | – | – | – | – |
| Cc1cccc(CCN(C)C(=O)Cc2ccc(OCCCCOc3ccc(CC(=O)O)cc3)cc2)c1 | 14% | 6.2 | 44% | 0.47 | 1100 nM | – | – | – | – |
| COc1cc(CC(=O)O)ccc1OCCCCOc1ccc(CC(=O)N(C)CCc2ccc(Br)cc2)cc1 | 27% | 6.11 | 38% | 0.354 | 1900 nM | – | – | Active | Active |
| CN(CCc1ccccc1)C(=O)Cc1ccc(OCCCCOc2ccc(CC(=O)O)cc2Cl)cc1 | 32% | 6.3 | 23% | 0.364 | 1200 nM | – | – | inactive | inactive |
| CN(CCc1ccccc1)C(=O)Cc1ccc(OCCCOc2ccc(CC(=O)O)cc2Cl)cc1 | 12% | 5.81 | 20% | 0.253 | 2400 nM | – | – | – | – |
